Patent US20250049798A1, “WEE1 PROTEIN KINASE DEGRADATION AGENT AND USE THEREOF” (HANGZHOU GLUBIO PHARMACEUTICAL CO. LTD., priority 2021, published 2025)

Columns and labels:
HiBiT tagged Wee1 = HiBiT tagged Wee1 (Homo sapiens, UniProt P30291); assay: Wee1 protein degradation assay (HiBiT assay); assay type: cell-based; conditions: engineered HT-1080 cells, 20 hours; for Dmax: maximum percentage of Wee1 degradation, read-out: HiBiT Wee1: Dmax
NCI-H1048 cells = assay: NCI-H1048 cell proliferation assay (CTG assay); assay type: cell-based; conditions: Homo sapiens, 120 hours, read-out: CTG cellular assay_H1048: IC50
Experimental: NCI-H1048 Cell Proliferation Assay (CTG Assay) The following is an example of an assay that can be used to determine the anti-proliferative activity of Wee1 PROTACs in a small cell lung cancer cell line, NCI-H1048 (ATCC Cat #CRL-5853). This cell line was cultured in RPMI-1640 medium supplemented with 10% FBS. About 1,200 NCI-H1048 cells in 50 μL of culture medium were seeded into a 384-well plate (Cat #3764, Corning), pre-spotted with compounds using the Echo 650 liquid handler (Beckman). The dose-response-curve (DRC) typically has 10-points with a highest concentration at 10 μM, and half-log diluted to as low as 0.316 nM, plus a DMSO control. Assay plates were incubated at 37° C. with 5% CO2 for 120 hours. After that, 20 μL of the CellTiter-Glo (CTG) Luminescent Cell Viability Assay Reagent (Cat #G7573, Promega) was added to each well and incubated at room temperature for 30 minutes. Luminescence was then measured with Pherastar microplate reader (BMG Labtech). All percentage of cell growth inhibition curves were processed using Collaborative Drug Discovery Vault.
Cell viability reads in compound-treated wells were normalized to that of DMSO control and expressed as Percent of Control (PoC, y). A four Parameter Logistic Model was used to determine the compound's EC50 and DC50, using the following equation: […]

HiBiT tagged Wee1, sequence (P30291 whole entry): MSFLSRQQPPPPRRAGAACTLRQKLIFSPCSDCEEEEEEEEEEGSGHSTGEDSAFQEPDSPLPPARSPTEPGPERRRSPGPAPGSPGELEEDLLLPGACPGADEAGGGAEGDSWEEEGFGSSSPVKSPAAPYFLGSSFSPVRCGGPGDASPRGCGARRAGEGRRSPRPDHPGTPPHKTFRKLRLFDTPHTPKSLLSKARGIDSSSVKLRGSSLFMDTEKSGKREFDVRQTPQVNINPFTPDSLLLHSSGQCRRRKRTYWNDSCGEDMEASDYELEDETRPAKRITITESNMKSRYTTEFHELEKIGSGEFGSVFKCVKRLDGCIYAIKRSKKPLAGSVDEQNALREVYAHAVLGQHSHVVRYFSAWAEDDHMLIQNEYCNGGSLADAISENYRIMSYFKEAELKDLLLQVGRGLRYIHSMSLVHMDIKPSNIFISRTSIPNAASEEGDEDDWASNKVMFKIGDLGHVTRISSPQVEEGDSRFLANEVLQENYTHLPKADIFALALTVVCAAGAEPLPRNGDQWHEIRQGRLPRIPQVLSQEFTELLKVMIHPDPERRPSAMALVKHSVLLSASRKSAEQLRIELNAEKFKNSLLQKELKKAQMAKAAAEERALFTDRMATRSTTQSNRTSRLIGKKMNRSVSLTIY

| SMILES | DC50 (HiBiT tagged Wee1) [µM] | Dmax (HiBiT tagged Wee1) [%] | IC50 (NCI-H1048 cells) [µM] |
| --- | --- | --- | --- |
| C=CCn1c(=O)c2cnc(Nc3ccc(C4CCN(C[C@@H]5CCN(c6ccc7c(c6)C(=O)N(C6CCC(=O)NC6=O)C7=O)C5)CC4)cc3)nc2n1-c1cccc(C(C)(C)O)n1 (some centres unmarked) [Compound 37] | < 0.1 | 50 to 75 | 0.025 to 0.1 |
| O=C1CCC(N2C(=O)c3ccc(N4CCC(CN5CCN(c6ccc(Nc7ncc8c(=O)n(-c9c(Cl)cccc9Cl)c9nccn9c8n7)cc6)CC5)CC4)cc3C2=O)C(=O)N1 (centres unmarked) [Compound 3] | < 0.1 | 50 to 75 | 0.025 to 0.1 |
| C=CCn1c(=O)c2cnc(Nc3ccc(C4CCN(CC5CCN(c6ccc7c(C8CCC(=O)NC8=O)nn(C)c7c6)CC5)CC4)cc3)nc2n1-c1cccc(C(C)(C)O)n1 (centres unmarked) [Compound 111] | < 0.1 | 50 to 75 | ≤ 0.025 |
| C=CCn1c(=O)c2cnc(Nc3ccc(N4CCN(CC5CCN(c6ccc7c(N8CCC(=O)NC8=O)nn(C)c7c6F)CC5)CC4)cc3)nc2n1-c1ccc2c(n1)[C@](C)(O)CC2 [Compound 200] | < 0.1 | > 75 | ≤ 0.025 |
| C=CCn1c(=O)c2cnc(Nc3ccc(N4CCC(CN5CCN(c6ccc7c(C8CCC(=O)NC8=O)nn(C)c7c6)CC5)CC4)cc3)nc2n1-c1cccc(C(C)(C)O)n1 (centres unmarked) [Compound 106] | < 0.1 | > 75 | ≤ 0.025 |
| C=CCn1c(=O)c2cnc(Nc3ccc(N4CCN(CC5CCN(c6ncc(NC7CCC(=O)NC7=O)cc6F)CC5)[C@@H](C)C4)cc3)nc2n1-c1ccc2c(n1)[C@@](O)(CC)CC2 (some centres unmarked) [Compound 192] | < 0.1 | > 75 | ≤ 0.025 |
| C=CCn1c(=O)c2cnc(Nc3ccc(N4CCN(CC5CCN(c6ccc7c(N8CCC(=O)NC8=O)nn(C)c7c6)CC5)[C@H](C)C4)cc3)nc2n1-c1ccc2c(n1)[C@@](O)(CC)CC2 [Compound 174] | < 0.1 | 50 to 75 | ≤ 0.025 |
| C=CCn1c(=O)c2cnc(Nc3ccc(N4CCN(CCCCc5cccc6c5n(C)c(=O)n6C5CCC(=O)NC5=O)CC4)cc3)nc2n1-c1cccc(C(C)(C)O)n1 (centres unmarked) [Compound 51] | < 0.1 | 50 to 75 | ≤ 0.025 |
| C=CCn1c(=O)c2cnc(Nc3ccc(C4CCN(CN5CCN(c6ccc7c(N8CCC(=O)NC8=O)nn(C)c7c6)CC5)CC4)cc3)nc2n1-c1cccc(C(C)(C)O)n1 [Compound 89] | < 0.1 | > 75 | ≤ 0.025 |
| C=CCn1c(=O)c2cnc(Nc3ccc(N4CCN(CC5CCN(c6ccc(NC7CCC(=O)NC7=O)cc6F)CC5)[C@H](C)C4)cc3)nc2n1-c1ccc2c(n1)[C@@](O)(CC)CC2 (some centres unmarked) [Compound 163] | < 0.1 | > 75 | ≤ 0.025 |
| C=CCn1c(=O)c2cnc(Nc3ccc(N4CCN(CC5CCN(c6ccc(NC7CCC(=O)NC7=O)cc6Cl)CC5)CC4)cc3)nc2n1-c1ccc2c(n1)[C@@](O)(CC)CC2 (some centres unmarked) [Compound 176] | < 0.1 | > 75 | ≤ 0.025 |
| C=CCn1c(=O)c2cnc(Nc3ccc(N4CCN(CC5CCN(c6ccc(NC7CCC(=O)NC7=O)cc6F)CC5)CC4)c(F)c3)nc2n1-c1cccc(C(C)(C)O)n1 (centres unmarked) [Compound 125] | < 0.1 | > 75 | 0.025 to 0.1 |
| Cc1cc(Nc2ncc3c(n2)N(C)CN(c2c(Cl)cccc2Cl)C3=O)ccc1C1CCN(CC2CN(c3ccc4c(c3)C(=O)N(C3CCC(=O)NC3=O)C4=O)C2)CC1 (centres unmarked) [Compound 18] | > 1 | < 50 | > 0.1 |
| C=CCn1c(=O)c2cnc(Nc3ccc(N4CCN(C5CCN(c6ncc(NC7CCC(=O)NC7=O)cc6F)CC5)CC4)cc3)nc2n1-c1ccc2c(n1)[C@@](O)(CC)CC2 (some centres unmarked) [Compound 182] | < 0.1 | > 75 | ≤ 0.025 |
| C=CCn1c(=O)c2cnc(Nc3ccc(N4CCN(CC5CCN(c6ccc(NC7CCC(=O)NC7=O)cc6F)CC5)[C@@H](C)C4)cc3)nc2n1-c1ccc2c(n1)[C@@](O)(CC)CC2 (some centres unmarked) [Compound 162] | < 0.1 | > 75 | ≤ 0.025 |
| C=CCn1c(=O)c2cnc(Nc3ccc(N4CCC(N5CCC(c6ccc(NC7CCC(=O)NC7=O)cc6)CC5)CC4)cc3)nc2n1-c1cccc(C(C)(C)O)n1 (centres unmarked) [Compound 70] | < 0.1 | > 75 | ≤ 0.025 |

| SMILES | DC50 (HiBiT tagged Wee1) [µM] | Dmax (HiBiT tagged Wee1) [%] | IC50 (NCI-H1048 cells) [µM] |
| --- | --- | --- | --- |
| Cc1cc(Nc2ncc3c(n2)N(C)CN(c2c(Cl)cccc2Cl)C3=O)ccc1C1CCN(CC2CCN(c3ccc4c(c3)C(=O)N(C3CCC(=O)NC3=O)C4=O)CC2)CC1 (centres unmarked) [Compound 16] | > 1 | < 50 | > 0.1 |
| C=CCn1c(=O)c2cnc(Nc3ccc(N4CCC(CN5CCC(c6ccc(NC7CCC(=O)NC7=O)cc6F)CC5)CC4)cc3)nc2n1-c1cccc(C(C)(C)O)n1 (centres unmarked) [Compound 81] | < 0.1 | > 75 | ≤ 0.025 |
| C=CCn1c(=O)c2cnc(Nc3ccc(N4CCC(CN5CCN(c6ccc(NC7CCC(=O)NC7=O)cc6F)CC5)CC4)cc3)nc2n1-c1cccc(C(C)(C)O)n1 (single isomer, unassigned) [Compound 100-A] | < 0.1 | > 75 | ≤ 0.025 |
| COc1ccc(C(=O)N2CCC3(CCN(Cc4ccc(Nc5ncc6c(=O)n(-c7c(Cl)cccc7Cl)c7nccn7c6n5)cc4)CC3)CC2)cc1N1CCC(=O)NC1=O [Compound 59] | > 1 | < 50 | – |
| COc1ccc(C(=O)N2CCC(OC3CCN(Cc4ccc(Nc5ncc6c(=O)n(-c7c(Cl)cccc7Cl)c7nccn7c6n5)cc4)CC3)CC2)cc1N1CCC(=O)NC1=O [Compound 60] | > 1 | < 50 | – |
| C=CCn1c(=O)c2cnc(Nc3ccc(C4CCN(CC5CCN(c6ccc(NC7CCC(=O)NC7=O)cn6)CC5)CC4)cc3)nc2n1-c1cccc(C(C)(C)O)n1 (centres unmarked) [Compound 84] | < 0.1 | 50 to 75 | – |
| C=CCn1c(=O)c2cnc(Nc3ccc(N4CCN(CC5CCN(c6ccc(NC7CCC(=O)NC7=O)cc6F)CC5)CC4)cc3)nc2n1-c1cccc(C(C)(C)C)n1 (centres unmarked) [Compound 204] | < 0.1 | > 75 | – |
| C=CCn1c(=O)c2cnc(Nc3ccc(N4CCN(CC5CCN(c6ccc(NC7CCC(=O)NC7=O)cc6F)CC5)CC4)cc3)nc2n1-c1ccc2c(n1)[C@@](O)(CC)CCC2 (single isomer, unassigned) [Compound 188] | < 0.1 | > 75 | – |
| C=CCn1c(=O)c2cnc(Nc3ccc(N4CCN(C5CCN(c6ccc7c(c6)C(=O)N(C6CCC(=O)NC6=O)C7=O)CC5)CC4)cc3)nc2n1-c1cccc(C(C)(C)O)n1 (centres unmarked) [Compound 40] | < 0.1 | 50 to 75 | – |
| C=CCn1c(=O)c2cnc(Nc3ccc(N4CCC(N(C)C5CCN(c6cccc7c6n(C)c(=O)n7C6CCC(=O)NC6=O)CC5)CC4)cc3)nc2n1-c1cccc(C(C)(C)O)n1 (centres unmarked) [Compound 98] | < 0.1 | 50 to 75 | – |
| C=CCn1c(=O)c2cnc(Nc3ccc(N4CCN(CC5CCN(c6ccc(NC7CCC(=O)NC7=O)cc6F)CC5)CC4)cc3)nc2n1-c1cccc(C(C)(C)O)n1 (centres unmarked) [Compound 102-A] | < 0.1 | > 75 | – |
| C=CCn1c(=O)c2cnc(Nc3ccc(N4CCN(CC5CCN(c6ncc(NC7CCC(=O)NC7=O)cc6F)CC5)CC4)nc3)nc2n1-c1ccc2c(n1)[C@@](O)(CC)CC2 (some centres unmarked) [Compound 195] | < 0.1 | > 75 | – |
| O=C1CCC(N2C(=O)c3ccc(N4CC(N5CCC(c6ccc(Nc7ncc8c(=O)n(-c9c(Cl)cccc9Cl)c9nccn9c8n7)cc6)CC5)C4)cc3C2=O)C(=O)N1 (centres unmarked) [Compound 42] | > 1 | 50 to 75 | – |
| COc1ccc(C(=O)N2CCC(CN3CCC(c4ccc(Nc5ncc6c(=O)n(-c7c(Cl)cccc7Cl)c7nccn7c6n5)cc4)CC3)CC2)cc1N1CCC(=O)NC1=O [Compound 26] | > 1 | < 50 | – |
| C=CCn1c(=O)c2cnc(Nc3ccc(N4CCN(C5CC6(CCN(c7ccc(NC8CCC(=O)NC8=O)cc7F)CC6)C5)CC4)cc3)nc2n1-c1ccc2c(n1)[C@@](O)(CC)CC2 (some centres unmarked) [Compound 165] | < 0.1 | > 75 | – |
| C=CCn1c(=O)c2cnc(Nc3ccc(C4CCN(C[C@H]5CCN(c6ccc7c(c6)C(=O)N(C6CCC(=O)NC6=O)C7=O)C5)CC4)cc3)nc2n1-c1cccc(C(C)(C)O)n1 (some centres unmarked) [Compound 36] | < 0.1 | 50 to 75 | – |
